Measurements: patent publication US12673039B2, “Methods of inducing autophagy using coumarin derivatives and related compounds” (Buck Institute for Research on Aging, priority 2019, dated 2026)

Test system: C. elegans
Assay: Autophagic flux and lysosomal reporters in C. elegans
Type: in vivo
Protocol: FIGS. 12A-12B illustrate that coumarin 106 (“C1”, “AIC106”) promotes induction of autophagic markers. FIG. 12A) Increased APG:APL fusion as assessed by green to red fluorescence shift following addition of 20 μM C1 versus DMSO-only control to ttdLGG-1:GFP worms expressing a pH sensitive GFP. FIG. 12B) Increases in autophagic flux as assessed by increased GFP fluorescence within p62::GFP and plmp-1::GFP expressing worms following addition of 20 μM C1 versus DMSO-only controls.
FIG. 19, panels A-G: AIC106 increases autophagic flux and lysosomal function in C. elegans. Panel A) Relative fold change in mRNA of autophagosome-specific protein p62/Sqstm-1 compared to DMSO-control was quantified using qRT-PCR in young adult wild-type N2 worms post-24 hours treatment with AIC106. [N=3 independent experiments (mean±SD). *p<0.05 and **p<0.01, by one-way ANOVA with Sidak's multiple comparisons test]. Panel B) Changes in p62/SQSTM-1 expression were measured by quantifying GFP intensity in an individual GFP-tagged p62/SQSTM-1 worm (HZ589) post-24 hours treatment with AIC106 and DMSO-control, followed by RNAi treatment. [N=3 independent experiments (mean±SD). ****p<0.0001, by one-way ANOVA with Tukey's multiple comparisons test]. Panel C) p62/SQSTM-1; GFP (HZ589) was monitored by fluorescence microscopy. Panel D) Changes in lysosomal number were measured by quantifying GFP intensity in an individual GFP-tagged LMP-1 worm (RT258) post-24 hours treatment with AIC106 and DMSO-control. [N=3 independent experiments (mean±SD). ****p<0.0001, by unpaired t-test]. Panel E) RT258 worms were monitored by fluorescence microscopy. Panel F) Changes in lysosomal number were measured by quantifying fluorescence intensity in an individual Lysotracker Red stained wild type N2 worms post-24 hours treatment with AIC106 and DMSO-control. [N=3 independent experiments (mean±SD). ****p<0.0001, by unpaired t-test]. Panel G) Lysotracker Red stained wild type N2 worms were monitored by fluorescence microscopy.
FIG. 26, panels A-B: AIC106 enhances autophagy flux in C. elegans. Panel A) Monitoring of tandem reporter lgg-1p::mCherry::GFP::lgg-1 expressing worms was performed by fluorescence microscopy. Panel B) Effects of AIC106 treatment on GFP and mCherry by time were measured by fluorescence microscopy after AIC106 or DMSO-control treatment for 24 h. [N=3 independent experiments (mean±SD). *p<0.05 and **p<0.01, by unpaired t-test].
Synchronized populations of day-1 adult worms expressing reporter GFP transgene or stained with a dye/stain (Lysotracker and TMRM) and grown at 20° C. were transferred to compound or DMSO plates. Fluorescence expression was analyzed at the time specified for each individual strain (see figure legends). Worms were paralyzed in 2 mM levamisole, mounted on 2% agarose pads with glass cover slips, and imaged immediately with an Axio Zeiss microscope. Appropriate filters were used to visualize GFP, Lysotracker red and TMRM were visualized under rhodamine filter. Approximately 20-40 worms per treatment were used. Fluorescence intensity normalized to worm area was measured using NIH ImageJ software. Transgenic reporters used in the study are HZ589 him-5(e1490) V; bpIs151[sqst-1p::sqst-1::GFP+unc-76(+)], RT258 unc-119(ed3) III; pwIs50 [lmp-1::GFP+Cbr-unc-119(+)], UA44 UA44(baIn11[Pdat-1::α-syn, Pdat-1::GFP]), AM141 rmIs133 [unc-54p::Q40::YFP]LAMP-1:GFP.
Synchronized day-1 adult N2 worms were transferred to DMSO control or compound treated plates for 24 hours at 20° C. On day-2, worms were transferred to 35 mm OP50 seeded assay plates treated with compound or DMSO plates overlaid with 1 μM LysoTracker™ Red DND-99 (Molecular Probes) for 24 hours at 20° C. Post-24 hours on LysoTracker stain, worms were picked and washed in a fresh drop of 1×M9 medium to remove excess stain and mounted on 2% agarose pad slides for microscopic visualization. Worm images were taken in a Zeiss Imager Z1 fluorescence microscope using rhodamine filters. […]

`O=c1oc2c3c4c(cc2c2c1CCC2)CCCN4CCC3` [C1, 2,3,6,7,10,11-Hexahydro-1H,5H-cyclopenta(3,4)(1)benzopyrano(6,7,8-ij)quinolizin-12(9H)-one] was tested, and the autophagic flux (20 μM C1 (FIG. 12)) was “increased autophagic flux”, the “tandem mCherry-GFP-LGG-1 reporter (autophagosomal:lysosomal fusion)” value (24 h (FIG. 26)) was “decreased GFP intensity in conjunction with significant increase in mCherry-only intensity” and the “p62/SQSTM-1 protein levels (GFP)” value (HZ589 worms, 24 hours) was “enhanced p62/SQSTM-1 protein levels”. The “lysosomal biogenesis by LysoTracker red staining” value (N2 worms) was “validated via LysoTracker red staining”, the “p62/Sqstm-1 mRNA” value (N2 worms, 24 hours) was “increased mRNA levels of p62/Sqstm-1” and the “lysosomal biogenesis (GFP-tagged LAMP-1/LMP-1)” value (RT258 worms, 24 hours) was “increase in lysosomal biogenesis”.
